ChEMBL document CHEMBL1152560, “Substituted 2-arylbenzothiazoles as kinase inhibitors: hit-to-lead optimization” (Bioorg Med Chem, 2009)

What was measured:
[1] = molecular target: Receptor tyrosine-protein kinase erbB-4 (Homo sapiens) (UniProt Q15303); assay: Residual activity of ERBB4 at 1 uM by microplate scintillation counting
[2] = molecular target: Mitogen-activated protein kinase kinase kinase 14 (Homo sapiens) (UniProt Q99558); assay: Residual activity of NIK at 10 uM by microplate scintillation counting
Sequence of Mitogen-activated protein kinase kinase kinase 14 (Homo sapiens) (Q99558 whole entry, looked up): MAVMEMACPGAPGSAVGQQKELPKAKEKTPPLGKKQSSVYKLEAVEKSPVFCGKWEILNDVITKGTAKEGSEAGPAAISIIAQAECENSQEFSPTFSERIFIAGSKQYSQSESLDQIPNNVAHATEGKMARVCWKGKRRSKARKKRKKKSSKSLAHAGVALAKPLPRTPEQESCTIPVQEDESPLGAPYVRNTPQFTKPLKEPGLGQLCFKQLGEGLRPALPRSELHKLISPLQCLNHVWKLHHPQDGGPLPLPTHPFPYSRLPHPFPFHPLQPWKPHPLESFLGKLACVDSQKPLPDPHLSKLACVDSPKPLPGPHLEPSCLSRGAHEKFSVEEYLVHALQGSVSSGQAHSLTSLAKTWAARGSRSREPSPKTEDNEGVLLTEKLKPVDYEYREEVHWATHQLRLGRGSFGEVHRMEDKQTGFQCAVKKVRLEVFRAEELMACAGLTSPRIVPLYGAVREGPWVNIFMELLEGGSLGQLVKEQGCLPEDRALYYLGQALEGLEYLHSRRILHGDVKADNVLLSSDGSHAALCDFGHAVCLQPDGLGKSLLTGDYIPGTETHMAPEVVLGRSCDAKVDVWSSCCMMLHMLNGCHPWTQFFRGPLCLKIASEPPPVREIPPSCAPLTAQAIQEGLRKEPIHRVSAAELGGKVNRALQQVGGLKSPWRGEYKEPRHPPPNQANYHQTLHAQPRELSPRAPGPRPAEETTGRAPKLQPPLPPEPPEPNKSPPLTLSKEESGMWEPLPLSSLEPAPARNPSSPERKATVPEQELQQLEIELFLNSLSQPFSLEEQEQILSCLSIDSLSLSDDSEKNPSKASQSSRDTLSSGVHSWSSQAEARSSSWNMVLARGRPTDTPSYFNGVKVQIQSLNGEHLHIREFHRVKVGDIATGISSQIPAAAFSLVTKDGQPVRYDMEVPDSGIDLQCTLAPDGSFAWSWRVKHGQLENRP

[3] = molecular target: Serine/threonine-protein kinase N2 (Homo sapiens) (UniProt Q16513); assay: Residual activity of PRK2 at 10 uM by microplate scintillation counting
Sequence of Serine/threonine-protein kinase N2 (Homo sapiens) (Q16513 whole entry, looked up): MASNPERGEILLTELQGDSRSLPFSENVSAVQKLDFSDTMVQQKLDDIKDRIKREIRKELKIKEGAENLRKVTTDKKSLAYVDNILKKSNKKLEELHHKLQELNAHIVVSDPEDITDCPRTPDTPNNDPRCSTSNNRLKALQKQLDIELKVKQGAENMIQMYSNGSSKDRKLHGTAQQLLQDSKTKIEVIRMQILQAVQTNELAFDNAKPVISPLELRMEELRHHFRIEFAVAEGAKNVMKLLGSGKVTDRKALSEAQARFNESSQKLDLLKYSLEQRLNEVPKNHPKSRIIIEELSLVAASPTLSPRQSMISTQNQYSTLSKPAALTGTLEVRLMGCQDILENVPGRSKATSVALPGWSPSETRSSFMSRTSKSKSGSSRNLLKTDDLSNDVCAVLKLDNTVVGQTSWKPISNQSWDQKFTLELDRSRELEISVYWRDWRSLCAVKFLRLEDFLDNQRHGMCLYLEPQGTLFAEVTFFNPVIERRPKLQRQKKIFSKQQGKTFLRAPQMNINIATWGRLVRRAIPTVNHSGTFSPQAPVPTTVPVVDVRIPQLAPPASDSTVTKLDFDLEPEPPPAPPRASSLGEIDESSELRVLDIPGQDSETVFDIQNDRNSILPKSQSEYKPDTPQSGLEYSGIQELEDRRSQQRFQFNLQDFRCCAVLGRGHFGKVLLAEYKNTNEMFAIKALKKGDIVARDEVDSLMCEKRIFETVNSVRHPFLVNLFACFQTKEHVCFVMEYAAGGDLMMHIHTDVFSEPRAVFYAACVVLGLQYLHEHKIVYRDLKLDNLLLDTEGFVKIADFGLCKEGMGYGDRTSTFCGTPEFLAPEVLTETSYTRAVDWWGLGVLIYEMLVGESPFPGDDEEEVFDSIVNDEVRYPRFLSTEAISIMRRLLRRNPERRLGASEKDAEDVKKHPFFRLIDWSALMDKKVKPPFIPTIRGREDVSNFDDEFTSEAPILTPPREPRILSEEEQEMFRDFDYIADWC

[4] = molecular target: T1, Serine/threonine-protein kinase Sgk2 (Homo sapiens) (UniProt Q9HBY8); assay: Residual activity of SGK2 at 10 uM by microplate scintillation counting
T1 sequence (whole entry): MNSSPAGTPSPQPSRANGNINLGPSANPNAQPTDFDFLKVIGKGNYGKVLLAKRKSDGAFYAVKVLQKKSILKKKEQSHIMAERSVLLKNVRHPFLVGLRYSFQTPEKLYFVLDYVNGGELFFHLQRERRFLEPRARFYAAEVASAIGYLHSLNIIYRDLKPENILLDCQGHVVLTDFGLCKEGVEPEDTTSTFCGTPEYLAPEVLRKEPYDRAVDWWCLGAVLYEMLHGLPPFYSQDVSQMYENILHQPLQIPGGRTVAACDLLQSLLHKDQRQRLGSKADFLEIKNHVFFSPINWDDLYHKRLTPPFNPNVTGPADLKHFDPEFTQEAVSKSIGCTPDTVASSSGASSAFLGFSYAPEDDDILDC

[5] = molecular target: T2, Ephrin type-A receptor 8 (Homo sapiens) (UniProt P29322); assay: Residual activity of EPHA8 at 10 uM by microplate scintillation counting
T2 sequence (whole entry): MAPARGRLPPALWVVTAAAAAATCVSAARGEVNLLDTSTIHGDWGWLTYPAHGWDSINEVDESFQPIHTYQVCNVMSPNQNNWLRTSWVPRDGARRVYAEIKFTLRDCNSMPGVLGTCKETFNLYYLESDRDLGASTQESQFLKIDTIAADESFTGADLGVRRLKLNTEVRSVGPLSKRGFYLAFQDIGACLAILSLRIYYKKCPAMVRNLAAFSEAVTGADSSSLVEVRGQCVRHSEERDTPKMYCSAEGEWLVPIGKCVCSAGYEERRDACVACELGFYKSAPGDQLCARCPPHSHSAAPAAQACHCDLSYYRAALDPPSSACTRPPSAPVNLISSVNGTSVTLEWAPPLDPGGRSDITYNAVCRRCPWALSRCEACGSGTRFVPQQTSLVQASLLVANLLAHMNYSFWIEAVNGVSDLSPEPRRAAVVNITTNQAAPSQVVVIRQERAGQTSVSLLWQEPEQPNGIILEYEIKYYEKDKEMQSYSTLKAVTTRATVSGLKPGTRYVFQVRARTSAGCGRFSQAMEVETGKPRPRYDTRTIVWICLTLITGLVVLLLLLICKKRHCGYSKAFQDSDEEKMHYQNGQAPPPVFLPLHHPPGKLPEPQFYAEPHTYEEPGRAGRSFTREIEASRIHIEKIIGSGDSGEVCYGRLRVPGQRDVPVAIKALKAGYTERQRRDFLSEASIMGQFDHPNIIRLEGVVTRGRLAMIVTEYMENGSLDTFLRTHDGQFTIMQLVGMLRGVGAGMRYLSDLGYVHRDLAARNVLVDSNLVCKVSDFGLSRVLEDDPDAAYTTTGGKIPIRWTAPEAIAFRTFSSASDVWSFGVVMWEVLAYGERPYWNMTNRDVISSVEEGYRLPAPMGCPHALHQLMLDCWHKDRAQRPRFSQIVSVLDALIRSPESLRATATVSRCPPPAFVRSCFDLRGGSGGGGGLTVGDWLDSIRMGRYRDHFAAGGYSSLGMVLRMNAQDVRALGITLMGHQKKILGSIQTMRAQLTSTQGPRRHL

[6] = molecular target: Serine/threonine-protein kinase Chk2 (Homo sapiens) (UniProt O96017); assay: Residual activity of CHK2 at 0.1 uM by microplate scintillation counting
Sequence of Serine/threonine-protein kinase Chk2 (Homo sapiens) (O96017 whole entry): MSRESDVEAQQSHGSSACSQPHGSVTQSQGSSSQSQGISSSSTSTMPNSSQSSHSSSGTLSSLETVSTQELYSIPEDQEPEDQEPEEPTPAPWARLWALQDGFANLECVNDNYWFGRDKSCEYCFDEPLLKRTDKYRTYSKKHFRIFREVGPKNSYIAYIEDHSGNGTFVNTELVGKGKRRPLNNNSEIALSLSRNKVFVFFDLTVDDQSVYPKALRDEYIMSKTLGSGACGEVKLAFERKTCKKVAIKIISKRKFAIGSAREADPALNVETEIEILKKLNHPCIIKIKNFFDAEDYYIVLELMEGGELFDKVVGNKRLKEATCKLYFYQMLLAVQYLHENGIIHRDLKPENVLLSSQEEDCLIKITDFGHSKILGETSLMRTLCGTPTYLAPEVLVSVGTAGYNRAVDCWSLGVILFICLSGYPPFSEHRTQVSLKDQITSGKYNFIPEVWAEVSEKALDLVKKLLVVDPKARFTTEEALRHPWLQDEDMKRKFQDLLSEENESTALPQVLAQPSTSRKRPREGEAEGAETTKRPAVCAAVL

[7] = molecular target: Maternal embryonic leucine zipper kinase (Homo sapiens) (UniProt Q14680); assay: Residual activity of MELK at 1 uM by microplate scintillation counting
Sequence of Maternal embryonic leucine zipper kinase (Homo sapiens) (Q14680 whole entry, looked up): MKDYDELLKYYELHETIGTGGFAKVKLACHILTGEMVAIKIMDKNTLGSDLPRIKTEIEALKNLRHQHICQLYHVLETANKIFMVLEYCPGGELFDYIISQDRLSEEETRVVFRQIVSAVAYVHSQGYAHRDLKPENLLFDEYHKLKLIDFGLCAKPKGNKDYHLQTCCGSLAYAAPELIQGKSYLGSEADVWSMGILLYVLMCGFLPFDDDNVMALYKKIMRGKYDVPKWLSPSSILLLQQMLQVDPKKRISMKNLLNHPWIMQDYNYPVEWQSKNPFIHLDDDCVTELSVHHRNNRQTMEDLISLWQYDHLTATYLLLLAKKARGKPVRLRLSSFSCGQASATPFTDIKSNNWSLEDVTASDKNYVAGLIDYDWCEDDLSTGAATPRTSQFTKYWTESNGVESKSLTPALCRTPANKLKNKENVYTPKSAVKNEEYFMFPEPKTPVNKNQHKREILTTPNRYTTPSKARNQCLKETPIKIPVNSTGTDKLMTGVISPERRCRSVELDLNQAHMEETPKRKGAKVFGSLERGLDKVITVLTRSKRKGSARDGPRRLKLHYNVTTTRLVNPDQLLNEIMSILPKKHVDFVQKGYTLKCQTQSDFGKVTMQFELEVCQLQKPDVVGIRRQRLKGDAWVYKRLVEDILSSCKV

[8] = system: T3, Receptor-type tyrosine-protein kinase FLT3 (Homo sapiens), P36888 [D835Y]; assay: Residual activity of FLT3 D835Y mutant at 1 uM by microplate scintillation counting
T3 sequence (whole entry): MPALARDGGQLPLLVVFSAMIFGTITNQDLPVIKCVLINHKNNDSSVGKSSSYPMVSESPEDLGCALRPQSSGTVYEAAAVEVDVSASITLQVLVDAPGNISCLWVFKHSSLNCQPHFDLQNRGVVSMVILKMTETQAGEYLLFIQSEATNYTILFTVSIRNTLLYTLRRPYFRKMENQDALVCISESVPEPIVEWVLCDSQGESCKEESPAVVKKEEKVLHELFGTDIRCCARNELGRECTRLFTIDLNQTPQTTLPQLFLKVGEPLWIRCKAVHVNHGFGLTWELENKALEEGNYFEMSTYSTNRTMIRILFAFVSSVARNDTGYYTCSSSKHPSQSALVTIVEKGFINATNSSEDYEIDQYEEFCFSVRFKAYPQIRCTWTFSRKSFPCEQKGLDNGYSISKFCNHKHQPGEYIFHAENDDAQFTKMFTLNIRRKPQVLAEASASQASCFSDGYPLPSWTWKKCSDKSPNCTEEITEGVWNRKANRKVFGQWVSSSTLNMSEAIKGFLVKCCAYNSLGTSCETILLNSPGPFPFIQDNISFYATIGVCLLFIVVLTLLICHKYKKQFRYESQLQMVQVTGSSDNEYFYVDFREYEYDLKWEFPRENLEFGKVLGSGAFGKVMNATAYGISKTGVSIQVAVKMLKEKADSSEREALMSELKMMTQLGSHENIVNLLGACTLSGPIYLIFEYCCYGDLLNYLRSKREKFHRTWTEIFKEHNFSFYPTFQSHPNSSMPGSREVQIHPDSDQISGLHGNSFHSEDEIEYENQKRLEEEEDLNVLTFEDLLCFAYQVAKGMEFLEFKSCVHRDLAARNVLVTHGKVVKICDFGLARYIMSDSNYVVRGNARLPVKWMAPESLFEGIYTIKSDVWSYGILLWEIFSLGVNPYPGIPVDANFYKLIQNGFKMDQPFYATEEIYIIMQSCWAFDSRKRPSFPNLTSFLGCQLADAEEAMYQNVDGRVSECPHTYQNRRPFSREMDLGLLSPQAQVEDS

Sequence of Receptor tyrosine-protein kinase erbB-4 (Homo sapiens) (Q15303 whole entry): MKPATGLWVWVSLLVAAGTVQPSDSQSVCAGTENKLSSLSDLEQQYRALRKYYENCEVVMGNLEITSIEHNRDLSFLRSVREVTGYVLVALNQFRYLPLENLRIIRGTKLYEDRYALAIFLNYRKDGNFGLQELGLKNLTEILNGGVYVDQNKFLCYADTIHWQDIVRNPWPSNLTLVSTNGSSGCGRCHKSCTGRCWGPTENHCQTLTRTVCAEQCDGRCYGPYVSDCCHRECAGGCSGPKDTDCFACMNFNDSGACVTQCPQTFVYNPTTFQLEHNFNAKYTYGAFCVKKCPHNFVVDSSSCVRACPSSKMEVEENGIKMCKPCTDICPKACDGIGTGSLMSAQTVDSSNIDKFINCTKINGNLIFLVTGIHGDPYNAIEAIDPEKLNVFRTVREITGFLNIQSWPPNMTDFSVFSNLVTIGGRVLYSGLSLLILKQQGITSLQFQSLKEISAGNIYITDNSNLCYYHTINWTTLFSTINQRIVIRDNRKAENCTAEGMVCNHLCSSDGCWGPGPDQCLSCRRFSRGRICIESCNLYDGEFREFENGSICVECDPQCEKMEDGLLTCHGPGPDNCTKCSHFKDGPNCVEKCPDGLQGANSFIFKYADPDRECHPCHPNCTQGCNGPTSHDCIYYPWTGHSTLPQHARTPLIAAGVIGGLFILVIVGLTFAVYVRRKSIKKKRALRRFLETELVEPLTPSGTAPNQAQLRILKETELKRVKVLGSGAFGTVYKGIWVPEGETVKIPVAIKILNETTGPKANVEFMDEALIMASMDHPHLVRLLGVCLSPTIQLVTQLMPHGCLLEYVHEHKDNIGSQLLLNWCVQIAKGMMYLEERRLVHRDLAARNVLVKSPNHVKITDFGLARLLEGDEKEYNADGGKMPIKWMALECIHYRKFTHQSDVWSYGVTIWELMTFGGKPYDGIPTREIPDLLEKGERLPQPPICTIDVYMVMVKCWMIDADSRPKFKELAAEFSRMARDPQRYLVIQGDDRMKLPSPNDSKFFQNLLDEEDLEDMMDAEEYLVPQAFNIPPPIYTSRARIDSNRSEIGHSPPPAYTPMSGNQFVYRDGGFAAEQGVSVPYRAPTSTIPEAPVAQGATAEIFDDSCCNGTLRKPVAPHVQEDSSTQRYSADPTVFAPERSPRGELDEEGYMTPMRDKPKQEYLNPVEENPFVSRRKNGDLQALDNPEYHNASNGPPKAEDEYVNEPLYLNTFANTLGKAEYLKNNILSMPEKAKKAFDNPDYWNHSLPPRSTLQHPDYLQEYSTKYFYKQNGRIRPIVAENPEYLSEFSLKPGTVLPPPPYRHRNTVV

| SMILES | residual activity [1] [%] | residual activity [2] [%] | residual activity [3] [%] | residual activity [4] [%] | residual activity [5] [%] | residual activity [6] [%] | residual activity [7] [%] | residual activity [8] [%] |
| --- | --- | --- | --- | --- | --- | --- | --- | --- |
| COc1cc2c(Oc3ccc(-c4nc5ccccc5s4)cc3)ncnc2cc1OCCCN1CCN(C)CC1 | 99 | 94 | 95 | 101 | 273 | 91 | 106 | 95 |
| COc1cc2c(Oc3ccc(-c4nc5ccccc5s4)cc3)ncnc2cc1OCCCN1CCCC1 | 109 | 125 | 85 | 88 | 185 | 88 | 78 | 90 |
| COc1cc2c(Oc3ccc(-c4nc5ccccc5s4)cc3F)ncnc2cc1OCCCN1CCN(C)CC1 | 103 | 107 | 75 | 111 | 114 | 92 | 68 | 78 |
